Results on 4 compounds are retold here after patent US20190031676A1, “ANTIBACTERIAL ANNULATED PYRROLIDIN-2-ONE DERIVATIVES” (priority 2015, published 2019).

Holding throughout (assay type): cell-based
The test system of one test is K. pneumoniae A-651. The experiment in a line: Bacterial growth minimal inhibitory concentration (microdilution, cation-adjusted Mueller-Hinton Broth). The settings on record: Klebsiella pneumoniae, A651; multiply-resistant strain (in particular quinolone-resistant). As for the experimental part:
(§1) Minimal Inhibitory Concentrations (MICs; mg/L) were determined in cation-adjusted Mueller-Hinton Broth by a microdilution method following the description given in “Methods for Dilution Antimicrobial Susceptibility Tests for Bacteria that grow Aerobically”, Approved standard, 7th ed., Clinical and Laboratory Standards Institute (CLSI) Document M7-A7, Wayne, Pa., USA (2006).
(§2) All Example compounds were tested against several Gram-positive and Gram-negative bacteria. […] K. pneumoniae A-651 is a multiply-resistant strain (in particular quinolone-resistant), while E. coli ATCC25922 and P. aeruginosa ATCC27853 are quinolone-sensitive strains.
On the technique in general: Broth dilution looks for growth in wells or tubes with falling amounts of substance.

The subject of the next test is P. aeruginosa ATCC27853. The description is as above. The settings on record: Pseudomonas aeruginosa, ATCC27853; quinolone-sensitive strain. As for the experimental part:
as §1, §2

The test system of another test is E. coli ATCC25922. The test is described as above. The settings on record: Escherichia coli, ATCC25922; quinolone-sensitive strain. Here is the method: as §1, §2
The next test deals with wild-type E. coli A-1261. The experiment in a line: MIC against wild-type E. coli A-1261 with or without alkaline phosphatase or esterase (prodrug activation). As to conditions: Escherichia coli. As for the experimental part:
Minimal Inhibitory Concentrations (MICs; mg/L) were determined in cation-adjusted Mueller-Hinton Broth by a microdilution method following the description given in “Methods for Dilution Antimicrobial Susceptibility Tests for Bacteria that grow Aerobically”, Approved standard, 7th ed., Clinical and Laboratory Standards Institute (CLSI) Document M7-A7, Wayne, Pa., USA (2006). The compounds of Examples 4 and 16 were tested against wild-type E. coli A-1261 in the absence of alkaline phosphatase or esterase, in the presence of an alkaline phosphatase, and in the presence of an esterase. The corresponding antibacterial test results are given in Table 2 hereafter (MICs in mg/L).

Setting [1] is: alkaline phosphatase 2 i.U./mL, read-out: MIC for E. coli A-1261 In the presence of an alkaline phosphatase (2 i.U./mL).
The mark [2] stands for this setting: esterase 10 i.U./mL, read-out: MIC for E. coli A-1261 In the presence of an esterase (10 i.U./mL).
The mark [3] stands for this setting: no alkaline phosphatase or esterase, read-out: MIC for E. coli A-1261 In the absence of alkaline phosphatase or esterase.

Each structure is given as a SMILES string. Values after ≈ are worked out from the molar mass of the structure shown. Like-named read-outs stand apart in the source and are kept apart here.

Turning to `C[C@@](CCN1Cc2cc(C#CC#C[C@H]3C[C@]3(F)CO)sc2C1=O)(C(=O)NO)S(C)(=O)=O` [Example 4, (2R)-4-(2-(((1R,2R)-2-fluoro-2-(hydroxymethyl)cyclopropyl)buta-1,3-diyn-1-yl)-6-oxo-4,6-dihydro-5H-thieno[2,3-c]pyrrol-5-yl)-N-hydroxy-2-methyl-2-(methylsulfonyl)butanamide], the MIC was 0.5 µg/mL (≈ 1.07 µM) in the test on K. pneumoniae A-651; 0.5 µg/mL (≈ 1.07 µM) in the test with P. aeruginosa ATCC27853; 0.25 µg/mL (≈ 0.534 µM) in the test with E. coli ATCC25922; 0.25 µg/mL with wild-type E. coli A-1261 (setting [1]); 0.25 µg/mL with wild-type E. coli A-1261 (setting [2]); 0.125 µg/mL (≈ 0.267 µM) with wild-type E. coli A-1261 (setting [3]).
As to `C[C@@](CCN1Cc2cc(C#CC#C[C@H]3C[C@]3(F)COP(=O)(O)O)sc2C1=O)(C(=O)NO)S(C)(=O)=O` [Example 16, ((1R,2R)-1-fluoro-2-((5-((3R)-4-(hydroxyamino)-3-methyl-3-(methylsulfonyl)-4-oxobutyl)-6-oxo-5,6-dihydro-4H-thieno[2,3-c]pyrrol-2-yl)buta-1,3-diyn-1-yl)cyclopropyl)methyl dihydrogen phosphate], the MIC in the test with wild-type E. coli A-1261 (setting [1]) was 0.25 µg/mL; with wild-type E. coli A-1261 (setting [2]), above 8 µg/mL; with wild-type E. coli A-1261 (setting [3]), above 8 µg/mL.
Consider `CN1C[C@H](C#CC#Cc2cc3c(s2)C(=O)N(CC[C@](C)(C(=O)NO)S(C)(=O)=O)C3)[C@H]1CF` [Example 41, (2R)-4-(2-(((2S,3S)-2-(fluoromethyl)-1-methylazetidin-3-yl)buta-1,3-diyn-1-yl)-6-oxo-4,6-dihydro-5H-thieno[2,3-c]pyrrol-5-yl)-N-hydroxy-2-methyl-2-(methylsulfonyl)butanamide], for which the values for the MIC in the test with K. pneumoniae A-651, against P. aeruginosa ATCC27853 and in the test with E. coli ATCC25922 were 0.25 µg/mL (≈ 0.519 µM), 1 µg/mL (≈ 2.08 µM) and 0.125 µg/mL (≈ 0.26 µM), respectively.
For `C[C@@](CCN1Cc2cc(C#Cc3ccccc3)sc2C1=O)(C(=O)NO)S(C)(=O)=O` [Example 42, (2R)—N-hydroxy-2-methyl-2-(methylsulfonyl)-4-(6-oxo-2-(phenylethynyl)-4,6-dihydro-5H-thieno[2,3-c]pyrrol-5-yl)butanamide], in that order: 0.125 µg/mL (≈ 0.289 µM), 2 µg/mL (≈ 4.62 µM) and at most 0.031 µg/mL.
